The assay has as its target T1, human and rat GPR-14 (UniProt Q9UKP6).
T1 sequence (Q9UKP6 1-389): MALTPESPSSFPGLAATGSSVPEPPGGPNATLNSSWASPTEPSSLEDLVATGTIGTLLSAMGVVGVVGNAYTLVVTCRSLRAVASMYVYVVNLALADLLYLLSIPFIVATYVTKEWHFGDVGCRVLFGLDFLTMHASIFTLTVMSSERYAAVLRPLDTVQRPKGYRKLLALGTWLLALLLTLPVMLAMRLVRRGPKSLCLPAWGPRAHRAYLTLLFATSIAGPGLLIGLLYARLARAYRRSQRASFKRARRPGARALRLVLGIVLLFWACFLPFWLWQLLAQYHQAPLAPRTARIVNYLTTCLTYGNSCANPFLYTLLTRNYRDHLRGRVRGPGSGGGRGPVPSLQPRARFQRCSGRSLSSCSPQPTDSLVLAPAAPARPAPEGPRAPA
Nature of the assay: Radioligand binding ([125I] h-U-II) to HEK-293 cell membranes containing cloned GPR-14. The note with it: stable cloned GPR-14, 200 pM [125I] h-U-II, species of receptor not given.

As for `COc1cc(Br)c(S(=O)(=O)Nc2ccc(Cl)c(O[C@H]3CCN(C)C3)c2)cc1OC` [Example 10, 2-Bromo-N-[4-chloro-3-((S)-1-methyl-pyrrolidin-3-yloxy)-phenyl]-4,5-dimethoxy-benzenesulfonamide], affinity was put at a Ki of 270 nM.

Values taken from patent US7026349B2, “Sulfonamides” (SmithKline Beecham Corporation, priority 2001, dated 2006).
